Earlier results on one compound are cited in patent publication US6821974B2, “Stable pharmaceutical compositions” (Barbeau Pharma, Inc, priority 2002, dated 2004).

The structures appear in SMILES notation. Where two headings read alike, the source gives them in different places.

For data set [1] the following is noted: 20 mg/ml sterile injection solutions.

Take `NNc1nncc2ccccc12` [Hydralazine, 1-hydrazinophthalazine]: under “given intravenously”, the onset of action is 10 to 20 min. Further, under “in vivo”, the duration of action is 3 to 4 h, the maximum hypotensive effect was 10 to 80 min and the onset of action is 10 to 30 min. In addition, the “storage time after which submicron particles appear” value in data set [1] is recorded as 6-12 months.
